# Test results from publication PMC11428279, “Exploring Structure–Activity Relationships and Modes of Action of Laterocidine” (ACS Central Science, 2024).
# Read-outs that look alike come from different tables or passages of the source. Bridge positions count the residues as written; N and C are the ends. Square brackets hold non-standard residues; d marks the D form. Peptide text beside a SMILES is read from it. * marks the point of attachment. Octanoyl(7-Me) = CC(C)CCCCCC(=O)*; dOrn = NCCC[C@@H](N)C(=O)O; Orn = NCCC[C@H](N)C(=O)O
# Tests used:
# [1] = test system: female Swiss mice; experiment: Acute toxicity in mice (maximum tolerable dose); assay type: in vivo; details: intravenous bolus via lateral tail vein, free base, N = 3
# Method: (§1) All animal studies were approved by the Monash University Animal Ethics Committee and involved female Swiss mice (22–28 g, 7-week-old) housed in microisolators within a PC2 animal laboratory. Mice were kept under a 12/12 h dark/light cycle at 20–24 °C and 50–70% ambient humidity.
# For the acute toxicity studies, peptide 11 and laterocidine solutions were prepared in 0.9% saline and stored at 4 °C before use. All mice were administered an intravenous bolus of one peptide (mg/kg free base) via a lateral tail vein (≤0.1 mL). Following the injection, mice were released back into their respective home cages and individually monitored for 24 h for signs of clinical toxicity. Mice displaying any signs of toxicity were humanely euthanized according to the recommended Euthanasia/Humane Experimental End point Criteria.
# [2] = test system: E. cloacae; assay type: cell-based
# Method: (§2) MICs for laterocidine and its various analogues were determined by broth microdilution[49] for the following polymyxin-susceptible ATCC and clinical isolates: P. aeruginosa FADDI-PA022, FADDI-PA001, FADDI-PA025, FADDI-PA070, FADDI-PA060; A. baumannii FADDI-AB134, FADDI-AB034, FADDI-AB030, FADDI-AB174, FADDI-AB241; K. pneumoniae FADDI-KP032, FADDI-KP022, BM1, FADDI-KP065, FADDI-KP064, FADDI-KP003; and E. cloacae FADDI-EC001, FADDI-EC003, and FADDI-EC006. Experiments were performed with cation-adjusted Mueller–Hinton broth (CAMHB) in 96-well polystyrene microtiter plates. Wells were inoculated with 100 μL of bacterial suspension prepared in CAMHB (containing ∼10^6 CFU/mL) and 100 μL of CAMHB containing increasing concentrations of polymyxins (0–32 μg/mL). MIC measurements were performed in duplicate, with the MIC being the lowest concentration at which visible growth was inhibited following 18–20 h of incubation at 37 °C. Bacterial killing kinetics was investigated over 24 h as described previously.[50]
# [3] = test system: Gram-negative strains of P. aeruginosa, A. baumannii, K. pneumoniae, and E. cloacae; assay type: cell-based
# Method: as §2
# [4] = test system: K. pneumoniae; assay type: cell-based
# Method: as §2
# [5] = test system: P. aeruginosa; assay type: cell-based
# Method: as §2
# [6] = test system: P. aeruginosa FADDI-PA070; experiment: Neutropenic murine bloodstream infection model; assay type: in vivo, P. aeruginosa in mice; details: 8 mg/kg iv (free base) 2 h postinoculation, neutropenic mice, 4 h time point, N = 3, mean
# Method: as §1
# The neutropenic bloodstream infection model was undertaken as previously described.[39] Mice were rendered neutropenic through intraperitoneal injections of cyclophosphamide administered 4 days (150 mg/kg) and 1 day (100 mg/kg) prior to inoculation. Bloodstream infection was established by administering a 50 μL bolus of early log-phase bacterial suspension (4 × 10^8 CFU/mL). Laterocidine, peptide 11, and polymyxin B solutions were prepared in sterile saline at a concentration of 1 mg/mL (free base). Two hours postinoculation, mice (n = 3) were injected intravenously with either polymyxin B at 4 mg/kg (free base), peptide 11 at 8 mg/kg (free base), laterocidine at 8 mg/kg (free base), or saline (control mice). Blood was collected immediately after (0 h) and 4 h after drug administration, serially diluted with sterile saline, and appropriately diluted samples manually plated on nutrient agar prior to overnight incubation at 37 °C. Colonies were counted manually and the bacterial load (log10 CFU/mL) in the blood of each mouse calculated. In vivo efficacy was calculated as the difference between the log10 CFU/mL blood values of treated and control mice 4 h postdosing (Δlog10 CFU/mL blood = log10 [treated] CFU/mL blood–log10[control] CFU/mL blood).[54]
# [7] = test system: P. aeruginosa PAO1; experiment: Flow cytometry of bacterial membrane integrity, respiration, polarity and oxidative stress; assay type: cell-based; details: 1 h exposure
# Method: The live cell impermeant fluorophore propidium iodide (PI) (Sigma-Aldrich, Castle Hill, NSW, Australia) was used to assess loss of membrane integrity (Ex/Em 488/660–690 nm) and the redox probe 5-cyano-2,3-ditolyl tetrazolium chloride (CTC) (Sigma-Aldrich, Castle Hill, NSW, Australia) used to assess loss of cellular respiration (Ex/Em 450/630 nm). […] Intracellular oxidative stress was measured using CR-G (CellROX Green) (Sigma-Aldrich, Castle Hill, NSW, Australia, Ex/Em 488/660–690 nm).[58] Appropriately diluted samples (600 μL) were stained separately with 12.5 μM PI, 2.5 mM CTC, 6 μM DiBAC, and 2.5 μM CR-G. Samples stained with both PI and DiBAC were incubated for 2 min and immediately analyzed. Samples stained with both CTC and CR-G were incubated for 45 min at RTP, and excess dye was pelleted out prior to analysis. Fluorescence intensity data were analyzed and log transformed using the NovoExpress software (V2.1, ACEA Biosciences, USA).[34]
# [8] = test system: P. aeruginosa PAO1; experiment: MIC; assay type: cell-based; details: polymyxin-susceptible reference strain
# [9] = test system: E. coli O111:B4 LPS; experiment: 1H NMR titration with LPS; assay type: binding; details: 23 °C, 50 mM acetate buffer pH 4.5, 1.5 mM peptide, 16 μL of 10 mg/mL LPS
# Method: NMR samples contained 0.75–2.0 mM laterocidine in a 50 mM acetate (d6) NMR buffer (90% H2O:10% D2O, pH 4.5 or ∼100% D2O, pH 4.5). Experiments were recorded on a Bruker 600 MHz NMR spectrometer equipped with a cryoprobe and Z axis gradient. 2D ^13C HSQC and 2D ^13C–^1H H2BC were recorded using gradients for coherence selection and sensitivity enhancement and additional presaturation of the solvent signal when required. 1D ^1H, 2D ^1H–^1H NOESY (with mixing times 35–200 ms), and 2D ^1H–^1H TOCSY experiments (mixing time 70 ms) used an excitation sculpting, DPFGSE sequence for water suppression.[51] Typical acquisition times for the 2D ^1H–^1H NOESY experiments were 524 ms (t2) and 40 ms (t1). For transferred LPS experiments, NMR data was recorded at 23–25 °C which was optimized for the least amide peak overlap. 2D ^1H–^1H NOESY spectra for the free peptide were also recorded at 23 °C. Spectra were processed with nmrPipe[52] or Topspin and analyzed with Xeasy[53] or NMRFAM Sparky.[54] Backbone assignments were made using the standard sequential NOE based assignment strategy using 2D ^1H–^1H TOCSY and 2D ^1H–^1H NOESY data. Side chain assignments were further aided using the 2D ^13C–^1H H2BC experiment. 1D ^1H STD experiments were recorded using excitation sculpting for water suppression. […]
# [10] = test system: P. aeruginosa PAO1R; experiment: Static time-kill study; assay type: cell-based; details: 8 × MIC, over 24 h
# Method: as §2
# [11] = test system: P. aeruginosa PAO1; experiment: Static time-kill study; assay type: cell-based
# Method: as §2
# [12] = test system: P. aeruginosa PAO1R; experiment: MIC; assay type: cell-based; details: polymyxin-resistant paired strain of PAO1
# [13] = test system: A. baumannii 5075R; assay type: cell-based; details: lipid A modified with phosphoethanolamine
# [14] = test system: A. baumannii 5075 (wild type); experiment: MIC; assay type: cell-based
# [15] = test system: A. baumannii 5075D; assay type: cell-based; details: lacks lipid A in the outer membrane
# [16] = listed as Laterocidine (peptide 1)
smiles,measurement,setting,value
CC[C@H](C)[C@@H]1NC(=O)[C@@H](NC(=O)[C@H](Cc2c[nH]c3ccccc23)NC(=O)[C@@H](CCCN)NC(=O)CNC(=O)[C@H](CCCN)NC(=O)[C@@H](CCCN)NC(=O)[C@@H](Cc2c[nH]c3ccccc23)NC(=O)[C@@H](Cc2ccc(O)cc2)NC(=O)[C@@H](CO)NC(=O)CCCCCC(C)C)[C@@H](C)OC(=O)CNC(=O)CNC(=O)[C@H](CC(N)=O)NC1=O [Laterocidine] ({Octanoyl(7-Me)}-[dS][dY][dW][dOrn][Orn]G[dOrn]WTINGG; ester 9-C),"maximum tolerable dose (MTD), Iv (Bolus)",[1],13.2 mg/kg
same,MICs against E. cloacae (range over strains),[2],1 to 2 µg/mL
same,MICs against the MDR strains (range),[3],1 to 16 µg/mL
same,MICs against K. pneumoniae (range over strains),[4],1 to 4 µg/mL
same,MICs against P. aeruginosa (range over strains),[5],4 to 8 µg/mL
same,Bacteria load in blood,[6]; listed as Peptide 1,16.93%
same,Bacteria load in blood,[6]; listed as peptide 1,16.9%
same,membrane integrity (propidium iodide fluorescence),[7]; 1 × MIC (2 μg/mL),no loss of membrane permeability
same,metabolic activity (CTC fluorescence),[7]; 1 × MIC (2 μg/mL),unaffected
same,intracellular oxidative stress (CellROX Green),[7]; 1 × and 8 × MIC,increase at both 1 × and 8 × MIC
same,membrane potential (DiBAC fluorescence),[7]; 1 × and 8 × MIC,extensive loss of membrane potential at each concentration
same,membrane integrity (propidium iodide fluorescence),[7]; 8 × MIC (16 μg/mL),substantial increase in permeability
same,metabolic activity (CTC fluorescence),[7]; 8 × MIC (16 μg/mL),markedly reduced
same,"MIC, P. aeruginosa PAO1",[8],8 µg/mL
same,binding affinity to LPS (line broadening in 1H NMR titration),[9],weak to moderate binding affinity
same,time-kill outcome against P. aeruginosa PAO1R,[10],substantial regrowth occurring at all concentrations
same,"regrowth at 24 h, P. aeruginosa PAO1","[11]; 4 × MIC, 24 h",~2 log 10 CFU/mL
same,time-kill outcome against P. aeruginosa PAO1,"[11]; 8 × MIC, over 24 h",bacterial eradication was achieved at 24 h
same,"MIC, P. aeruginosa PAO1R",[12],8 µg/mL
same,"MIC, A. baumannii 5075 R",[13],32 µg/mL
same,"MIC, A. baumannii 5075 R",[13]; [16],> 32 µg/mL
same,"MIC, A. baumannii 5075 S",[14],8 µg/mL
same,"MIC, A. baumannii 5075 D",[15],32 µg/mL
same,"MIC, A. baumannii 5075 D",[15]; [16],> 32 µg/mL
